Test results as given in patent US11548946B2, “Carrier-PD-L1 binding agent compositions for treating cancers” (Mayo Foundation for Medical Education and Research, priority 2016, dated 2023).

Assays:
[1] = molecular target: T1, CD20 (Homo sapiens, UniProt P11836); assay: Flow cytometry: blocking of fluorescent anti-CD20 labeling of Daudi cells; type: cell-based; settings: CD20 positive Daudi lymphoma cells pretreated prior to CD20 labeling
T1 construct: CD20 positive Daudi lymphoma cells; endogenous in cells; host or cells: Daudi lymphoma cells
T1 sequence (P11836 1-297): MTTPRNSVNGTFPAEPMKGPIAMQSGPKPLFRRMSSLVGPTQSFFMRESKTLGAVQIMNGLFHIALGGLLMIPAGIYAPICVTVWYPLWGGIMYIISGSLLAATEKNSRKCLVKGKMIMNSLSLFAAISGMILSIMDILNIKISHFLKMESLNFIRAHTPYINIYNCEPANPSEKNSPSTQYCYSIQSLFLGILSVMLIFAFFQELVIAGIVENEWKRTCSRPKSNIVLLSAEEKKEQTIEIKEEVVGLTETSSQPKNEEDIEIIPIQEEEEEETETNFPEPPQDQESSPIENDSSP
Source text: FIGS. 1A-1F depicts the results of an experiment in which CD20 positive Daudi lymphoma cells were labeled with fluorescent tagged anti-human CD20 or isotype matched control in panels F and A, respectively, and analyzed by flow cytometry. In the other panels, the Daudi cells were pretreated with ABRAXANE® (ABX; FIG. 1B), ABX/rituximab nanoparticles (AR160; FIG. 1C), lyophilized and resuspended AR160 (AR160L; FIG. 1D), or Rituxan (FIG. 1E) prior to CD20 labeling.
CD20 positive Daudi lymphoma cells were labeled with fluorescent tagged anti-human CD20 or isotype matched control in panel F and A, respectively, and analyzed by flow cytometry. In the other panels, the Daudi cells were pretreated with ABX, AR160, AR160L (AR160 lyophilized and resuspended into a solution suitable for injection), or Rituxan prior to CD20 labeling.

[2] = molecular target: ABX; assay: Biolayer interferometry (BLItz) of biotinylated atezolizumab on streptavidin probes exposed to ABX; settings: ABX at 100, 500, 1000 μg/mL in 1×PBS; read-out: Kd (binding affinity between atezolizumab and ABX)
Procedure: Biolayer interferometry (BLItz) (Forte Bioscience) was performed using streptavidin probes.
To determine whether atezolizumab and ABX are capable of interacting to form nanoparticle complexes, Biolayer interferometry (BLItz) (Forte Bioscience) was performed using streptavidin probes. 100 ug/ml of biotinylated atezolizumab in 1×PBS was bound to the streptavidin probe. After washing unbound atezolizumab from the probe, the antibody-bound probe was exposed to ABX at concentrations of 100, 500, 1000 μg/mL in 1×PBS. An antibody probe exposed to PBS was used as background and background was subtracted. BLItz software was used to calculate dissociation constants (FIG. 7).

[3] = test system: PD-L1 positive C8161 melanoma tumor cells; assay: In vivo efficacy in athymic nude mice bearing C8161 melanoma tumors; settings: single IV tail vein dose; atezolizumab 18 mg/kg, ABX 45 mg/kg, AA130 18 mg/kg atezolizumab and 45 mg/kg ABX
Procedure: FIGS. 11A-11D show the change in tumor volume over time in mice that were injected with 2×10^6 PD-L1 positive C8161 melanoma tumor cells, then treated by 100 ul IV tail vein injection with saline (FIG. 11A), atezolizumab alone (18 mg/kg; FIG. 11B), ABX alone (45 mg/kg; FIG. 11C) and AA130 (18 mg/kg atezolizumab and 45 mg/kg ABX; FIG. 11D) one time. Tumor growth was monitored 3 times per week. Tumor size was calculated with the equation: (length×width^2)/2.
Kaplan Meier curves were generated using Graph Pad software. The median survival for each group was 14, 13, 16, and 21.5 days for saline, atezolizumab, Abraxane and AA130, respectively. Survival differences between AA130 and all other groups were significant, with p-values of 0.0008 for saline, 0.0015 for atezolizumab, and 0.0113 for ABX.
Athymic nude mice (Harlan Sprague Dawley) were injected with 2×10^6 PD-L1 positive C8161 melanoma tumor cells. The tumors were allowed to grow until about 600 mm^3 and were treated by 100 μl IV tail vein injection with saline, atezolizumab alone (18 mg/kg), ABX alone (45 mg/kg) and AA130 (18 mg/kg atezolizumab and 45 mg/kg ABX) one time (FIGS. 11A-11D). Tumor growth was monitored 3 times/week. Tumor size was calculated with the equation: (length×width^2)/2.
Kaplan Meier curves were generated using Graph Pad software. […]

Substance | CD20 binding of fluorescent anti-CD20 antibody after pretreatment [1] | Kd [2] [nM] | median survival [3] [days]
Rituxan: rituximab, anti-CD20 antibody used as free antibody control | specifically blocked | – | –
atezolizumab: anti-PD-L1 mAb, humanized monoclonal antibody | – | 1.46 | 13
